Results on 10 compounds are retold here after ChEMBL document CHEMBL1201862, “PubChem BioAssay data set” (2004).

The structures appear in SMILES notation.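 Briefly, cells in 96-well plates were exposed to five compound concentrations for 48 h, and endpoints were estimated by linear interpolation. GI50 marks 50% less growth.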 Activity calls are given as the source filed them. Rule as the data show it: active = GI50 up to about 1.1 µM and inactive = higher. Bounds are passed on as bounds.

Among the test systems are SK-MEL-2; OVCAR-8; UACC-62; 786-0; EKVX; LOX IMVI; SR; SF-539; MDA-MB-231; MDA-N; M14; UO-31; A549; HCT-116; T47D; MCF7; SK-MEL-28; Malme-3M; NCI/ADR-RES; CAKI-1.
What all share (experiment): growth of human tumour cells (NCI), 48 h

For `CCNCC(=O)O[C@]1(CC)C(=O)OCc2c1cc1n(c2=O)Cc2cc3ccccc3nc2-1`, the GI50 was 2.77 µM (inactive) in the assay with SK-MEL-2; 0.27 µM (active) in the assay with OVCAR-8; 0.0468 µM (active) in the assay on UACC-62; 0.0455 µM (active) in the assay with 786-0; 2.44 µM (inactive) in the assay with EKVX; 0.0893 µM (active) in the assay with LOX IMVI. Moreover, the GI50 is < 0.0118 µM (active) with SR; 0.0466 µM (active) in the assay on SF-539; 6.71 µM (inactive) in the assay on MDA-MB-231; 1.36 µM (inactive) in the assay with MDA-N; 0.163 µM (active) with M14; 0.158 µM (active) in the assay with UO-31. The GI50 in the assay with A549 is 0.157 µM (active); in the assay with HCT-116, 0.342 µM (active); in the assay with T47D, 0.203 µM (active); in the assay on MCF7, 0.0693 µM (active); in the assay on SK-MEL-28, 3.56 µM (inactive); in the assay with Malme-3M, 1.49 µM (inactive). Further, the GI50 was 0.114 µM (active) with NCI/ADR-RES and 0.0559 µM (active) with CAKI-1.

As for `O=C(/C=C/c1ccc([N+](=O)[O-])cc1)c1nc2ccccc2[nH]1`, the GI50 in the assay with SK-MEL-2 was > 77.8 µM (inactive); in the assay with OVCAR-8, > 70.5 µM (inactive); in the assay on UACC-62, 5.89 µM (inactive); in the assay on 786-0, 27.4 µM (inactive); in the assay with EKVX, 61.5 µM (inactive); in the assay with LOX IMVI it was 24.3 µM (inactive). Further, the GI50 with SR is 2.49 µM (inactive); with SF-539, 26.9 µM (inactive); in the assay on MDA-MB-231, 26.9 µM (inactive); with MDA-N, 72.1 µM (inactive); in the assay on M14, > 88.9 µM (inactive); in the assay with UO-31, > 69.8 µM (inactive). The GI50 in the assay with A549 was > 45.9 µM (inactive); in the assay on HCT-116 it was 1.88 µM (inactive); with T47D, 29.2 µM (inactive); in the assay with MCF7, 2.21 µM (inactive); in the assay on SK-MEL-28, > 100 µM (inactive); in the assay on Malme-3M, > 100 µM (inactive). Moreover, the GI50 in the assay with NCI/ADR-RES was > 48.2 µM (inactive); in the assay on CAKI-1, 4.23 µM (inactive).

With `CSc1nc2c3ccccc3ccn2c1C(=O)N/N=C/c1ccccc1`, the GI50 is > 95.7 µM (inactive) in the assay on SK-MEL-2; 18.5 µM (inactive) in the assay with OVCAR-8; > 100 µM (inactive) with UACC-62; 15.5 µM (inactive) in the assay on 786-0; > 100 µM (inactive) in the assay with EKVX; > 100 µM (inactive) in the assay on LOX IMVI. Besides, the GI50 is 41.9 µM (inactive) with SR; 1.43 µM (inactive) in the assay with SF-539; 18.1 µM (inactive) in the assay with MDA-MB-231; 97.3 µM (inactive) with MDA-N; > 100 µM (inactive) in the assay with M14; 21.8 µM (inactive) in the assay with UO-31. In addition, the GI50 in the assay with A549 was 56.9 µM (inactive); in the assay on HCT-116, 15.5 µM (inactive); in the assay on T47D, 27.9 µM (inactive); with MCF7, > 46.3 µM (inactive); in the assay with SK-MEL-28, > 100 µM (inactive); with Malme-3M, 47.6 µM (inactive). Also, the GI50 with NCI/ADR-RES is 28.9 µM (inactive); in the assay on CAKI-1 it was 14.9 µM (inactive).

On to `COc1ccc(/C=C/C(=O)Oc2ccc(/C=C3\CCCCC3=O)cc2)cc1`, for which the GI50 is > 100 µM (inactive) with SK-MEL-2; > 75.9 µM (inactive) in the assay on OVCAR-8; 2.96 µM (inactive) with UACC-62; > 100 µM (inactive) with 786-0; > 100 µM (inactive) in the assay on EKVX; > 100 µM (inactive) in the assay with LOX IMVI. Further, the GI50 with SR was > 100 µM (inactive); in the assay on SF-539 it was > 100 µM (inactive); with MDA-MB-231, 40.9 µM (inactive); with MDA-N, > 100 µM (inactive); in the assay with M14, > 100 µM (inactive); with UO-31 it was > 100 µM (inactive). Besides, the GI50 in the assay on A549 is 80.5 µM (inactive); in the assay on HCT-116, 9.33 µM (inactive); in the assay with T47D, > 100 µM (inactive); with MCF7 it was > 100 µM (inactive); in the assay on SK-MEL-28, > 100 µM (inactive); in the assay on Malme-3M, > 79.1 µM (inactive). Also, the figures for the GI50 with NCI/ADR-RES and in the assay with CAKI-1 were > 57.4 µM (inactive) and > 100 µM (inactive), respectively.

Turning to `C[N+]1(CC[N+]2(C)CCCC2c2cccnc2)CCCC1c1cccnc1` (stereo not given), the GI50 with SK-MEL-2 was > 100 µM (inactive); in the assay on OVCAR-8, > 100 µM (inactive); in the assay with UACC-62, > 100 µM (inactive); in the assay on 786-0, 30.4 µM (inactive); in the assay with EKVX, 18.7 µM (inactive); in the assay on LOX IMVI it was > 100 µM (inactive). Also, the GI50 was > 100 µM (inactive) with SR; > 100 µM (inactive) in the assay on SF-539; > 100 µM (inactive) in the assay with MDA-MB-231; 32.5 µM (inactive) in the assay with MDA-N; > 100 µM (inactive) with M14; > 100 µM (inactive) in the assay with UO-31. The GI50 with A549 was > 100 µM (inactive); in the assay on HCT-116, 96.6 µM (inactive); in the assay on T47D, 42.4 µM (inactive); with MCF7, > 100 µM (inactive); in the assay with SK-MEL-28, 61.8 µM (inactive); in the assay with Malme-3M, 59.3 µM (inactive). Further, the GI50 in the assay with NCI/ADR-RES and with CAKI-1 was > 100 µM (inactive) throughout.

In the case of `COc1c(O)c(O)cc2c1-c1ccc(OC)c(=O)cc1C(NC(C)=O)CC2` (stereo not given), the GI50 with SK-MEL-2 is 3.15 µM (inactive); in the assay on OVCAR-8, 7.55 µM (inactive); in the assay on UACC-62, 4.36 µM (inactive); with 786-0, 8.04 µM (inactive); in the assay with EKVX it was 25.5 µM (inactive); in the assay with LOX IMVI, 4.84 µM (inactive). Further, the GI50 is 3.24 µM (inactive) in the assay on SR; 2.81 µM (inactive) in the assay with SF-539; 4.94 µM (inactive) with MDA-MB-231; 1.69 µM (inactive) in the assay with MDA-N; 3.78 µM (inactive) with M14; 56.1 µM (inactive) in the assay with UO-31. The GI50 in the assay on A549 is 37.4 µM (inactive); with HCT-116, 3.94 µM (inactive); with T47D, > 100 µM (inactive); with MCF7, 2.61 µM (inactive); in the assay with SK-MEL-28 it was 8.07 µM (inactive); with Malme-3M, 5.7 µM (inactive). Besides, the GI50 is 29 µM (inactive) with NCI/ADR-RES and 24.2 µM (inactive) in the assay on CAKI-1.

On to `COc1ccc(N2C(=O)C3c4[nH]c5ccccc5c4C4CCCCCCCCCC4C3C2=O)cc1` (stereo not given), for which the GI50 in the assay on SK-MEL-2, with OVCAR-8, in the assay with UACC-62, in the assay with EKVX, with LOX IMVI and in the assay with SR was > 10 µM (inactive) in each case. In addition, the GI50 in the assay with SF-539 is 7.28 µM (inactive); in the assay on MDA-MB-231, > 10 µM (inactive); in the assay with MDA-N it was > 10 µM (inactive); in the assay on M14, > 10 µM (inactive); in the assay with UO-31 it was > 10 µM (inactive); in the assay with A549, > 10 µM (inactive). The GI50 in the assay with HCT-116, in the assay on T47D, with MCF7, in the assay on SK-MEL-28, with Malme-3M and in the assay with NCI/ADR-RES was > 10 µM (inactive) each time. For the same compound, the GI50 in the assay with CAKI-1 was > 10 µM (inactive).

For the compound `COc1ccc(NC2CC(C)N(C(=O)c3ccccc3)O2)cc1` (stereo not given), the GI50 with SK-MEL-2, in the assay on OVCAR-8, in the assay on 786-0, in the assay with EKVX, in the assay with LOX IMVI and in the assay with SR was > 10 µM (inactive) in each case. The GI50 in the assay with SF-539, in the assay on MDA-MB-231, with MDA-N, in the assay with M14, in the assay with UO-31 and in the assay with A549 was > 10 µM (inactive) in each case. Besides, the GI50 with HCT-116, with T47D, in the assay with MCF7, with SK-MEL-28, in the assay with Malme-3M and in the assay with NCI/ADR-RES was > 10 µM (inactive) in each case. In the assay on CAKI-1, the GI50 is > 10 µM (inactive).

Turning to `CC(C)OP(=O)(OC(C)C)c1c(N)n[nH]c1Nc1ccccc1`, the GI50 in the assay on SK-MEL-2, in the assay on OVCAR-8, in the assay on UACC-62, with EKVX, with LOX IMVI and in the assay with SR was > 100 µM (inactive) each time. The GI50 in the assay on SF-539, with MDA-MB-231, in the assay on MDA-N, in the assay with M14, in the assay on UO-31 and in the assay with A549 was > 100 µM (inactive) throughout. For the same compound, the GI50 with T47D, with MCF7, in the assay on SK-MEL-28, in the assay with Malme-3M, with NCI/ADR-RES and in the assay on CAKI-1 was > 100 µM (inactive) in each case.

For `CC1OC(OC2C(OC3CCC4(C)C(CCC5(C)C4CC=C4C6CC(C)(C)CCC6(C(=O)O)CCC45C)C3(C)CO)OCC(O)C2O)C(O)C(O)C1O` (stereo not given), the GI50 in the assay on SK-MEL-2 is 17.7 µM (inactive); with OVCAR-8 it was 20.3 µM (inactive); in the assay with UACC-62 it was 8.05 µM (inactive); in the assay with 786-0, 30.7 µM (inactive); with EKVX, 20.4 µM (inactive); in the assay with LOX IMVI it was 11.1 µM (inactive). Moreover, the GI50 in the assay with SR is 3.33 µM (inactive); with SF-539, 15.5 µM (inactive); with MDA-MB-231, 17.9 µM (inactive); with MDA-N, 21.1 µM (inactive); in the assay with UO-31, 3.66 µM (inactive); with A549 it was 19.1 µM (inactive). Moreover, the GI50 with HCT-116 was 7.4 µM (inactive); in the assay with T47D it was 22.1 µM (inactive); in the assay with MCF7 it was 0.46 µM (active); in the assay with SK-MEL-28 it was 6.37 µM (inactive); with Malme-3M, 19.3 µM (inactive); in the assay with NCI/ADR-RES, 20.9 µM (inactive). Besides, in the assay on CAKI-1, the GI50 was 18.5 µM (inactive).
